For test [1], the system named is TNFα release from LPS-induced RAW 264.7 cells. Briefly: Inhibition of LPS-induced TNFα release from RAW 264.7 cells (ELISA). The following applies: RAW 264.7 murine macrophage cells, 1 hour pretreatment, 100 ng/mL LPS, 24 hours. The test is classed as cell-based. As for the experimental part: (§1) The present inventors measured the ability of eight test articles to inhibit LPS-induced nitric oxide and TNFα secretion from murine macrophage cells.
(§2) The studies were conducted in RAW 264.7 cultures.
(§3) RAW 264.7 murine macrophage cells (ATCC, TIB-71) were maintained at 5% CO2, 37° C. in RPMI media (Fisher 15-040-CV, 1 mg/L glutathione) with 10% fetal bovine serum (fbs, Fisher, lot 05069F) plus 2 mM L-glutamine and penicillin/streptomycin. The cells were subcultured every two to three days. Cells were plated in tissue culture treated 96 well plates at a density of 1×10^5 cells/well and incubated at 5% CO2, 37° C. for at least one hour prior to initiation of the assay. The cells were washed with RPMI with 10% fbs prior to the initiation of the assay.
The compounds were weighed, dissolved in DMSO for stock solutions of 10 mg/mL and serially diluted in RPMI. The plated RAW 264.7 cells were pretreated in duplicate with the test compounds, control (CNI-1493) or vehicle for 1 hour at final concentrations of 0, 0.1, 1.0, 10, and 100 μg/mL. The cells were stimulated with 100 ng/mL LPS (E. coli 0111:B4) and incubated at 5% CO2, 37° C. for 24 hours. The media was collected and stored at −20° C.

The test system of test [2] is nitric oxide release from LPS-induced RAW 264.7 cells. Briefly: Inhibition of LPS-induced nitric oxide (nitrite) release from RAW 264.7 cells (Griess reagent). The format is cell-based. The conditions noted are these: RAW 264.7 murine macrophage cells, 1 hour pretreatment, 100 ng/mL LPS, 24 hours. As for the experimental part:
as §1, §2, §3
The compounds were weighed, dissolved in DMSO for stock solutions of 10 mg/mL and serially diluted in RPMI. The plated RAW 264.7 cells were pretreated in duplicate with the test compounds, control (CNI-1493) or vehicle for 1 hour at final concentrations of 0, 0.1, 1.0, 10, and 100 μg/mL. […]
To 50 μL of cell-free media, 50 μL of Griess Reagent (1 part 0.1% naphthylethylenediamine diHCl, 1 part 1.32% sulfanilimide in 60% acetic acid) was added and incubated for no more than 5 minutes at ambient temperature. The samples were read on a microtiter plate reader at 540 nm and compared to a 0.1-5 nmol nitrite standard curve.

Experimental findings from US7863334B2, “Guanylhydrazone compounds, compositions, methods of making and using” (Cytokine PharmaSciences, Inc., priority 2004, dated 2011) are described below.

The structures appear in SMILES notation.

Turning to `C/C(=N\N=C(N)N)c1cc(NC(=O)CCCCCCCCC(=O)Nc2cc(/C(C)=N/N=C(N)N)cc(/C(C)=N/N=C(N)N)c2)cc(/C(C)=N/N=C(N)N)c1.Cl.Cl.Cl.Cl` [CNI-1493], the “IC50 for inhibition of release of TNFα” value in test [1] was “approximately 8 μg/mL”. For the same compound, the “IC50 for inhibition of nitric oxide release” value in test [2] is on record as “approximately 5.5 μg/mL”.
